Test system: mouse embryonic stem cell clones, each containing a neomycin resistance gene (Neo) inserted by the GTR1.3 gene trap retrovirus
Experiment: Carcinogen-induced LOH: frequency of colony formation in 2.0 mg/ml G418
Format: cell-based
Settings: for enhanced colony formation, average: at least 25 entrapment lines
Protocol: Carcinogen-induced LOH was measured in a panel of 53 mouse embryonic stem cell clones, each containing a neomycin resistance gene (Neo) inserted into a different cellular gene (FIG. 9) by the GTR1.3 gene trap retrovirus. Gene entrapment by GTR1.3 involves selection for inserted Neo sequences that can splice to the 3′ ends of cellular genes (Lin et al.,). The disrupted genes were identified by sequencing Neo-gene fusion transcripts and were localized on the mouse genome. Previous studies have shown that cells homozygous for GTR1.3-induced mutations can be selected from heterozygous cells simply by selecting for resistance to higher concentrations of G418, a method first shown to select for homozygous mutations induced by gene targeting (15). Mitotic recombination appears to be the preferred mechanism of spontaneous LOH involving Neo genes inserted in ES cells (17) and LOH involving other genes and cell types in vivo (12, 13). LOH doubles the number of Neo genes per cell and thus allows moderately resistant cells to acquire resistance to higher concentrations of G418. The frequencies of spontaneous LOH measured at the 53 different sites ranged from 1.3×10^−5 to 1.2×10^−4 (Table 3), similar to those reported for other inserted neomycin resistance genes (15, 17) in ES cells and for loci such as TK and APRT in other cell types (12, 13).
A variety of chemical agents were tested for their ability to enhance the frequencies at which mutant cells survive in 2.0 mg/ml G418. Methyl-nitrosurea (MNU) is an alkylating agent that produces a variety of mono-methylated DNA adducts, hydroxyurea (HU) stalls DNA replication complexes, doxorubicin interferes with DNA synthesis, methothrexate is a competitive inhibitor of dihydrofolate reductase but is not genotoxic, diepoxybutane and mitomycin C induce inter-strand DNA crosslinks, UV irradiation causes intra- and inter-strand pyrimidine dimmers, and ethidium bromide intercalates between DNA strands to damage DNA (For additional information about these agents see http://toxnet.nlm.nih.gov and http://lisntweb.swan.ac.uk/cmgt/index.htm). […] The fold-increase for MNU and HU ranged from 39-123 and 18-68, respectively (Table 3). The optimal concentrations of each agent to stimulate colony formation with minimal toxicity (<5% loss of cell viability) were determined in advance (FIG. 13). […] Each of these agents was tested two or more times on at least 25 entrapment lines.
Serially diluted cells were plated onto 150 mm plates containing drug-free media and allowed to attach overnight. Unattached cells were removed and media containing the indicated concentrations of methyl-nitrosourea, hydroxyurea, ethidium bromide, doxorubicin, methotrexate, diepoxybutane, or mitomycin C was put onto cells for 4 hours (or cells were exposed to ultraviolet light in the absence of media and allowed to recover in drug-free media for 4 hours). Cells were then rinsed twice with drug-free media and selection media containing 0.0, 0.3, or 2.0 mg/ml G418 was put onto cells. After 12 days of selection, the number of colonies surviving was counted and the frequency of colony formation was determined by dividing the number of colonies obtained from 2.0 mg/ml G418 selection to that obtained from parallel experiments with 0.3 mg/ml G418 selection. TK gene loss was assessed following selection in media containing 2 μg/ml gancyclovir.
Table 3. The frequency of colony formation in high concentrations of G418. The frequency of colony formation is listed for all 53 clones examined. Frequency was determined by dividing the number of colonies surviving 2.0 mg/ml G418 selection to the number surviving parallel experiments with 0.3 mg/ml G418 selection, and is the average of at least 3 independent experiments for each clone. Standard deviations, which ranged from 5 to 70% of the mean values, have been omitted for clarity. […]

CC[n+]1c(-c2ccccc2)c2cc(N)ccc2c2ccc(N)cc21 [EtBr, ethidium bromide]
effect on colony formation in high G418 (ethidium bromide 25 μg/ml): no significant effect

C1OC1C1CO1 (stereo not drawn) [diepoxybutane]
survival of mutant ES cells in media containing 2.0 mg/ml G418 (ES cells heterozygous for Xrcc5 entrapment mutation, 4 hours with 0.5 mM methyl-nitrosourea, 0.25 mM hydroxyurea or 100 ng/ml diepoxybutane): enhances the survival | enhanced colony formation, average (diepoxybutane 100 ng/mL): 16 fold

COc1cccc2c1C(=O)c1c(O)c3c(c(O)c1C2=O)C[C@@](O)(C(=O)CO)C[C@@H]3O[C@H]1C[C@H](N)[C@H](O)[C@H](C)O1 [doxorubicin]
enhanced colony formation, average (doxorubicin 0.1 μM): 15 fold

CN(Cc1cnc2nc(N)nc(N)c2n1)c1ccc(C(=O)N[C@@H](CCC(=O)O)C(=O)O)cc1 [methothrexate]
effect on colony formation in high G418 (methothrexate 50 μM): no significant effect

CO[C@@]12[C@H](COC(N)=O)C3=C(C(=O)C(C)=C(N)C3=O)N1C[C@@H]1N[C@@H]12 [mitomycin C]
enhanced colony formation, average (mitomycin C 50 ng/mL): 14 fold
